Assay results from patent US12018084B2, “Anti-CXCR2 antibodies and uses thereof” (Cephalon LLC, priority 2018, dated 2024).

Tests used:
Human CXCR2 [1] = target: T1, Human CXCR2 (Homo sapiens, UniProt P25025); experiment: Tango CXCR2-bla U2OS cell-based β-arrestin recruitment assay; set-up: The beta-arrestin/TEV protease fusion and the beta-lactamase reporter are separate parts of the cell line; conditions: for EC50: human agonist potency
T1 sequence (P25025 1-360): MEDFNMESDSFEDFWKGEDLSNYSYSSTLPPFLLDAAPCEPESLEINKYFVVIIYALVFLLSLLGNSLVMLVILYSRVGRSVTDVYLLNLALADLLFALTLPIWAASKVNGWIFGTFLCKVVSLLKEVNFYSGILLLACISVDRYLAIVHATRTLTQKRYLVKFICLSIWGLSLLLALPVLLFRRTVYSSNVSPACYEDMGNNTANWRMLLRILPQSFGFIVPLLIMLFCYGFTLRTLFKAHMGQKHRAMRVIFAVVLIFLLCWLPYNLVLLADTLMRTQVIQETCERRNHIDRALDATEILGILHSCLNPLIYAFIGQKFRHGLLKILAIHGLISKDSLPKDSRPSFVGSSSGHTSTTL
Description: Cells were thawed, propagated, cultured and frozen according to the manufacturer's directions.
Preparation of Tango™ CXCR2-bla U2OS cells for use in cell-based assays: The manufacturer's protocol was altered to make use of 96-well plates instead of 384-well plates. Briefly, dividing cells were harvested one day prior to use. Cells were harvested and resuspended in assay medium (100% FreeStyle™ Expression Medium; Life Technologies; Cat #12338-018) at a viable cell density of 312,500 cells/mL. 128 μL of cell suspension was added per well in 96-well black-walled, clear bottom tissue culture-treated plates. Cells were incubated for 16-20 hrs at 37° C. in an atmosphere of 5% CO2 prior to use in assays.
Tango™ assay procedure: Assays were set up and run as described in the manufacturer's protocol. For antagonist assays, agonists were used at concentrations in the EC50-EC80 range. Assays were read using a FlexStation® 3 (Molecular Devices) fluorescence plate reader configured with the parameters given in Table 4. The blue/green emission ratio for each well was calculated by dividing the blue emission values by the green emission values. All inhibition curves were fitted using a four-parameter dose-response using GraphPad Prism™ (Version 7.01).
The Human CXCR2 Tango™ cell line was used to assess the ability of antibody BKO-4A8-101c to inhibit β-arrestin recruitment to agonist-activated CXCR2. All human ELR+ chemokine CXCR2 ligands were tested in antagonist dose response assays using calculated EC50 values of agonist.
The commercially available reporter cell line Tango™ CXCR2-bla U2OS (ThermoFisher Scientific) was used to assess the ability of the anti-CXCR2 antibodies to inhibit β-arrestin recruitment to agonist-activated CXCR2. Agonists were provided at their assay EC50 concentration for antagonist assays.

Human CXCR2 [2] = target: T1, Human CXCR2; experiment: Calcium flux assay, HTS002C-CHEMISCREEN human CXCR2 calcium-optimized cell line; assay type: cell-based; conditions: for EC50: human agonist potency
Method: One of the signaling pathways downstream of CXCR2 activation that has a role in cell chemotaxis is characterized by calcium mobilization (flux). The ability of BKO-4A8-101c to inhibit human CXCR2 ligand-induced calcium flux was tested in the commercially available HTS002C-CHEMISCREEN™ human CXCR2 chemokine receptor calcium-optimized cell line.
The Fluo-4 NW calcium assay kit (Life Technologies) was used according to manufacturer's protocol for in-cell measurement of calcium mobilization, which was read using a FLIPR Tetra high-throughput cellular screening system (Molecular Devices). The peak response minus the basal response from each well was used to determine inhibition dose response curves fitting a four-parameter logistic equation and IC50 values.

CD11b expression = conditions: cited from earlier work
CCR2b receptors = target: T2, CCR2b receptors (Homo sapiens, UniProt P41597); conditions: selectivity versus CXCR2; cited from earlier work
T2 sequence (P41597 1-360 isoform P41597-2): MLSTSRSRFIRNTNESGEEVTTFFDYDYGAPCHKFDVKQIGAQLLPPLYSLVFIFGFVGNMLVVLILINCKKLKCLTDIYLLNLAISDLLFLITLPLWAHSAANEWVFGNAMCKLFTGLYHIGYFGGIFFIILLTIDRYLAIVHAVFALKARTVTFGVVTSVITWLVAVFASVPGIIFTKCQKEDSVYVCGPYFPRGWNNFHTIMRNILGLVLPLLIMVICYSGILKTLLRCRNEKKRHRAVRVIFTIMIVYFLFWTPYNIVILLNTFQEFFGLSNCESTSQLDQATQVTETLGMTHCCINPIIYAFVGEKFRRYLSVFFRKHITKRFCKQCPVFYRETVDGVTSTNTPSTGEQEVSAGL

CXCR1 = target: T3, CXCR1 (Homo sapiens, UniProt P25024); conditions: selectivity versus CXCR2; cited from earlier work
T3 sequence (P25024 1-350): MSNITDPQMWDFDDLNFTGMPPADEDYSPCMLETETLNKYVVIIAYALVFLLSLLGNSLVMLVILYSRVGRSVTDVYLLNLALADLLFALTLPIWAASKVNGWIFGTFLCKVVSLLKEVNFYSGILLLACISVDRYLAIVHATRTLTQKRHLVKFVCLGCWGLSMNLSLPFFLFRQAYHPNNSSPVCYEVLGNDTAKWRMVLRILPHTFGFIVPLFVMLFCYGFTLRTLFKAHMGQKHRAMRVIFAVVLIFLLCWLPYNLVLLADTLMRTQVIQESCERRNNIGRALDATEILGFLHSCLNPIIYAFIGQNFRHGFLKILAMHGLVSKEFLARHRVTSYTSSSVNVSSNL

COPD = conditions: in vivo; cited from earlier work
[3] = tested on: neutrophil surface expression of CD11b; conditions: cited from earlier work
[4] = tested on: mouse model of severe asthma; conditions: pre-treatment with 10 and 30 mg/kg; not significantly different from HDM-vehicle; cited from earlier work

CXCL2: human agonist chemokine, R&D Systems 276-GB [reference compound]
EC50 (Human CXCR2 [1]): 33.3 nM | EC50 (Human CXCR2 [2]): 37 nM

CXCL8: human agonist chemokine, Miltenyi Biotec 130-108-979 [reference compound]
EC50 (Human CXCR2 [2]): 3.2 nM

CXCL5: human agonist chemokine, R&D Systems 254-XB [reference compound]
EC50 (Human CXCR2 [1]): 97.7 nM | EC50 (Human CXCR2 [2]): 39.2 nM

CXCL6: human agonist chemokine, R&D Systems 333-GC [reference compound]
EC50 (Human CXCR2 [1]): 9.4 nM | EC50 (Human CXCR2 [2]): 28.9 nM

C[C@@H](Oc1cc(NS(=O)(=O)N2CCC2)nc(SCc2cccc(F)c2F)n1)[C@@H](O)CO [AZD5069]
effect on C5a, LTB4 or fMLP induced CD11b expression (CD11b expression): no effect | fold less potent at CCR2b receptors (CCR2b receptors): > 150 fold | fold less potent at CXCR1 (CXCR1): > 150 fold

CXCL3: human agonist chemokine, R&D Systems 277-GG [reference compound]
EC50 (Human CXCR2 [1]): 11.9 nM | EC50 (Human CXCR2 [2]): 12.2 nM

Cc1c(F)cccc1NC(=O)Nc1ccc(Cl)c(S(=O)(=O)[C@H]2CCCNC2)c1O [Antagonist 5, Danirixin]
CXCL1 Maximal Inhibition % (Human CXCR2 [1]; CXCL1 at EC50, comparison with comparators): 99% | CXCL5 Maximal Inhibition % (Human CXCR2 [1]; CXCL5 at EC50, comparison with comparators): 99% | CXCL8 Maximal Inhibition % (Human CXCR2 [1]; CXCL8 at EC50, comparison with comparators): 99% | primary end points in a Phase IIb trial for COPD (COPD): failed to meet primary end points | CD11b upregulation on neutrophils [3]: block CD11b upregulation | IC50, CXCL1-induced ex vivo neutrophil surface expression of CD11b [3]: 0.069 µg/mL | IC90, CXCL1-induced ex vivo neutrophil surface expression of CD11b ([3]; range 158-1080 ng/ml): 0.62 µg/mL | IC90 ([3]; range 356-2443 nM, read-out: IC90, CXCL1-induced ex vivo neutrophil surface expression of CD11b): 1400 nM | IC50 ([3]; read-out: IC50, CXCL1-induced ex vivo neutrophil surface expression of CD11b): 156 nM | CXCL1 Maximal Inhibition % (Human CXCR2 [2]; CXCL1 at EC50): 95% | CXCL8 Maximal Inhibition % (Human CXCR2 [2]; CXCL8 at EC50): 97%

CXCL1: human agonist chemokine, Miltenyi Biotec 130-108-974 [reference compound]
EC50 (Human CXCR2 [1]): 2.3 nM | EC50 (Human CXCR2 [2]): 2.62 nM

CC[C@@H](Nc1c(Nc2cccc(C(=O)N(C)C)c2O)c(=O)c1=O)c1ccc(C)o1 [Antagonist 6, SCH 527123]
inhibition of neutrophil cell numbers in the BAL (maximum) [4]: ≤ 30%
